Assay results published in paper PMC5552880, “The Bitter Taste Receptor TAS2R16 Achieves High Specificity and Accommodates Diverse Glycoside Ligands by using a Two-faced Binding Pocket” (Scientific Reports, 2017).
Changes are numbered by the printed parent chain.

Key:
Type in all cases: cell-based
M64R TAS2R16 = target: T1, M64R TAS2R16 (Homo sapiens, UniProt Q9NYV7, M64R); assay: Ca2+ flux assay, mutation library clone M64R; settings: 3 mM salicin, mean (range, max-min), n=3
T1 construct: Each construct in the mutation library was tested for full-length TAS2R16 translation; V5; expressed in transfected cells; host or cells: HEK-293T
T1 sequence (Q9NYV7 whole entry M64R): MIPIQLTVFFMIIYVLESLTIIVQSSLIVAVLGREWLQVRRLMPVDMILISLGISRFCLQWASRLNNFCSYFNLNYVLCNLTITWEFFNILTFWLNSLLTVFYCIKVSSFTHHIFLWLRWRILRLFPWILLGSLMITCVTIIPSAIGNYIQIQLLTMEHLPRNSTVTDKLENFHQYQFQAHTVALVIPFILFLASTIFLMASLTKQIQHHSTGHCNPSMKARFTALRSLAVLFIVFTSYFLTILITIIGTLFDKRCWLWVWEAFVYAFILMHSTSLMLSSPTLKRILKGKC
Procedure: (§1) The TAS2R16 mutation library was tested for function using a Ca^2+ flux assay as described previously. Later screens of individual TAS2R16 mutant clones used 4-nitrophenyl-β-D-glucopyranoside. Briefly, HEK-293T cells, in poly-lysine coated, black 384-well plates with clear bottoms (Costar), were transfected with the TAS2R16 mutation library, and a plasmid expressing a Gα16 chimera containing the last 44 amino acids of rat gustducin (Gα16gust44). Cells were incubated for 22 hours at 37 °C then washed twice with a calcium indicator dye in HBSS containing 20 mM HEPES (Calcium 4 Assay kit, Molecular Devices), incubated with HBSS for 1.5 hr, then moved to a Flexstation II-384 (Molecular Devices) set at 32 °C. […] Concentrations for mutation library screening were chosen to be approximately 2 to 3 times higher than the EC50 values for the ligands to maximize the sensitivity of detecting decreases in signaling due to the mutation in each clone.
(§2) For Ca^2+ flux assays, the value of fluorescence at 30 seconds after ligand addition (the time of peak signal for wild-type TAS2R16) was used as the maximum value. […] Data sets were analyzed and represented as percentage over baseline signal. Mean and standard deviation values were calculated for each clone from replicate assay data.

I21F TAS2R16 = target: T2, I21F TAS2R16 (Homo sapiens, UniProt Q9NYV7, I21F); assay: Ca2+ flux assay, mutation library clone I21F; settings: 3 mM salicin, mean (range, max-min), n=3
T2 construct: FLAG (N); expressed in transfected cells; host or cells: HEK-293T
T2 sequence (Q9NYV7 whole entry I21F): as the sequence (Q9NYV7 whole entry M64R) above, with I21F, R64M counted along it
Procedure: as §1, §2

L59P TAS2R16 = target: T3, L59P TAS2R16 (Homo sapiens, UniProt Q9NYV7, L59P); assay: Ca2+ flux assay, mutation library clone L59P; settings: 3 mM salicin, mean (range, max-min), n=3
T3 construct: Each construct in the mutation library was tested for full-length TAS2R16 translation; V5; expressed in transfected cells; host or cells: HEK-293T
T3 sequence (Q9NYV7 whole entry L59P): as the sequence (Q9NYV7 whole entry M64R) above, with L59P, R64M counted along it
Procedure: as §1, §2

Q24R TAS2R16 = target: T4, Q24R TAS2R16 (Homo sapiens, UniProt Q9NYV7, Q24R); assay: Ca2+ flux assay, mutation library clone Q24R; settings: 3 mM salicin, mean (range, max-min), n=3
T4 construct: FLAG (N); expressed in transfected cells; host or cells: HEK-293T
T4 sequence (Q9NYV7 whole entry Q24R): as the sequence (Q9NYV7 whole entry M64R) above, with Q24R, R64M counted along it
Procedure: as §1, §2

S108T TAS2R16 = target: T5, S108T TAS2R16 (Homo sapiens, UniProt Q9NYV7, S108T); assay: Ca2+ flux assay, mutation library clone S108T; settings: library screening concentrations
T5 construct: FLAG (N); expressed in transfected cells; host or cells: HEK-293T
T5 sequence (Q9NYV7 1-291 S108T): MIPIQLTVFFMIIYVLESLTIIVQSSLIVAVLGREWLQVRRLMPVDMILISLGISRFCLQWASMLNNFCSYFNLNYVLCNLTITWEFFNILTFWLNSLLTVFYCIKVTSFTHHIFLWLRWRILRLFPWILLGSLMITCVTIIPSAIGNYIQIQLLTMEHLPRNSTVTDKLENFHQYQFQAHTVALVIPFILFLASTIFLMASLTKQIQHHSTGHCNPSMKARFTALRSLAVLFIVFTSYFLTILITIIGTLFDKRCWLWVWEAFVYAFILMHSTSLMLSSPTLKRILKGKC
Procedure: as §1
(§3) For Ca^2+ flux assays, the value of fluorescence at 30 seconds after ligand addition (the time of peak signal for wild-type TAS2R16) was used as the maximum value. […] Raw data obtained from surface expression and flux experiments were normalized to the values for wild-type TAS2R16 on each plate. Data sets were analyzed and represented as percentage over baseline signal. Mean and standard deviation values were calculated for each clone from replicate assay data.

S228T TAS2R16 = target: T6, S228T TAS2R16 (Homo sapiens, UniProt Q9NYV7, S228T); assay: Ca2+ flux assay, mutation library clone S228T; settings: library screening concentrations
T6 construct: FLAG (N); expressed in transfected cells; host or cells: HEK-293T
T6 sequence (Q9NYV7 1-291 S228T): T5 sequence (Q9NYV7 1-291 S108T) with T108S, S228T
Procedure: as §1, §3

N96A TAS2R16 = target: T7, N96A TAS2R16 (Homo sapiens, UniProt Q9NYV7, N96A); assay: Ca2+ flux assay, N96A TAS2R16 variant; settings: Fig. 7 dose-response
T7 construct: FLAG (N); expressed in transfected cells; host or cells: HEK-293T
T7 sequence (Q9NYV7 whole entry N96A): as the sequence (Q9NYV7 whole entry M64R) above, with R64M, N96A counted along it
Procedure: as §1, §2
Ligand dose-response data was analyzed with Graphpad Prism 5 software. […]

Ca2+ flux in response to salicin (M64R TAS2R16): 14 (1) % of wild-type
Ca2+ flux in response to salicin (I21F TAS2R16): 9 (5) % of wild-type
Ca2+ flux in response to salicin (L59P TAS2R16): 2 (3) % of wild-type
Ca2+ flux in response to salicin (Q24R TAS2R16): 9 (9) % of wild-type
Ca2+ flux signaling value (S108T TAS2R16): 99 % of wild-type
Ca2+ flux signaling value (S228T TAS2R16): 90 % of wild-type
EC50 (N96A TAS2R16): 6.5 mM
Compound: OCc1ccccc1O[C@@H]1O[C@H](CO)[C@@H](O)[C@H](O)[C@H]1O [salicin]
